Experimental data as given in PubChem BioAssay (NCI).
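Grown in 96-well plates, cells were treated for 48 hours with each compound at five concentrations. Insufficient inhibition: endpoint recorded as highest concentration tested. GI50 marks 50% less growth. TGI: concentration producing complete growth inhibition.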

What was measured:
Experiment in all cases: growth of human tumour cells (NCI), 48 h
OVCAR-5 ovarian = system: OVCAR-5 ovarian
UO-31 renal = system: UO-31 renal
HCT-15 colon = system: HCT-15 colon
A549 NSCLC = system: A549 NSCLC
OVCAR-3 ovarian = system: OVCAR-3 ovarian
NCI-H226 lung = system: NCI-H226 lung
SNB-75 CNS = system: SNB-75 CNS
SK-MEL-2 melanoma = system: SK-MEL-2 melanoma
PC-3 prostate = system: PC-3 prostate

SMILES | TGI (OVCAR-5 ovarian) [µM] | TGI (UO-31 renal) [µM] | TGI (HCT-15 colon) [µM] | TGI (A549 NSCLC) [µM] | TGI (OVCAR-3 ovarian) [µM] | TGI (NCI-H226 lung) [µM] | TGI (SNB-75 CNS) [µM] | TGI (SK-MEL-2 melanoma) [µM] | GI50 (OVCAR-3 ovarian) [µM] | GI50 (SNB-75 CNS) [µM] | GI50 (SK-MEL-2 melanoma) [µM] | GI50 (OVCAR-5 ovarian) [µM] | GI50 (UO-31 renal) [µM] | GI50 (HCT-15 colon) [µM] | GI50 (A549 NSCLC) [µM] | GI50 (NCI-H226 lung) [µM] | GI50 (PC-3 prostate) [µM] | TGI (PC-3 prostate) [µM]
COc1cccc(/C=C/C(=O)c2sc(C(N)=S)nc2C)c1O | > 100 | > 100 | > 76.5 | > 100 | > 100 | > 100 | > 100 | > 100 |  |  |  |  |  |  |  |  |  | 
Cc1ccc(S(=O)(=O)N2CCN(C=S)CC2)cc1 | > 100 | > 100 | > 100 | > 100 | > 100 |  | > 100 | > 100 |  |  |  |  |  |  |  |  |  | 
CN(C)CCC(CCN(C)C)=NO |  | > 100 | > 100 | > 100 | > 100 |  | > 100 | > 100 |  |  |  |  |  |  |  |  |  | 
CC(=O)O[C@H]1CCN2C(=O)C=CC(OCc3ccccc3)C12 (stereo partly drawn) | > 100 | > 100 | > 100 | > 100 | > 100 | > 100 | > 100 | > 100 |  |  |  |  |  |  |  |  |  | 
CCOC(=O)C(CCC(N)=O)(CCC(=O)OC)C(=O)OCC | > 100 | > 100 |  | > 100 | > 100 | > 100 | > 100 |  |  |  |  |  |  |  |  |  |  | 
COc1cc(CNCCN2C(=O)c3ccc4c5c(ccc(c35)C2=O)C(=O)N(CCNCc2cc(OC)c(OC)c(OC)c2)C4=O)cc(OC)c1OC |  |  |  |  | 0.548 |  | 0.826 | 1.29 | 0.174 | 0.232 | 0.586 |  |  |  |  |  |  | 
CCOc1ccc(/C=C/c2cc(OC)c(OC)c(OC)c2)cc1 | > 100 | > 100 | > 22.1 | > 100 | 1.88 | > 26.1 | > 64.1 | 20.7 |  |  |  |  |  |  |  |  |  | 
O=C1C(=C([O-])c2ccccc2)C(=O)c2ccccc21.O=C1C(=C([O-])c2ccccc2)C(=O)c2ccccc21.[Mn+2] | > 100 | > 100 | > 100 | > 100 | > 100 | > 100 | > 100 | > 100 | 40.5 | > 100 | > 100 | > 100 | 43.9 | 55.4 | > 100 | 32 |  | 
O=c1c2ccccc2c(/C=N\NC2=NCCN2)c2oc3ccccc3n12 | 37.1 | 70.9 | 62.1 | 60.3 | 34.3 | 48.2 | 42 | 87.6 | 18.6 | 19.4 | 21.8 | 19.8 | 18.8 | 14.7 | 16.4 | 19.2 | 23 | 45.6
